Assay results: the NIST ThermoML archive (doi:10.1016/j.jct.2016.03.026)

Test: xn = mol fraction of the nth substance listed
Details: Fluid (supercritical or subcritical phases), x1 = 0.97; for speed of sound: Frequency=5 MHz, Pulse-echo method; for mass density: 283.15 K, Vibrating tube method

O=C=O [carbon dioxide] + CO
speed of sound [m/s]
Details | 273.15 K | 283.14 K
14010 kPa | – | 615.2
20000 kPa | – | 679.8
25010 kPa | – | 725
29940 kPa | – | 763.8
34980 kPa | – | 799.7
39940 kPa | – | 831.8
39990 kPa | 875.6 | –
44950 kPa | 903.5 | –
45090 kPa | – | 862.8
49960 kPa | 929.9 | –
50150 kPa | – | 890.9
54970 kPa | 954.7 | –
55020 kPa | – | 916.3
59830 kPa | – | 940.2
60000 kPa | 978.4 | –
64950 kPa | 1000.7 | 964.2
69990 kPa | 1022.2 | –
70150 kPa | – | 987.4
74930 kPa | 1042.5 | –
74970 kPa | – | 1007.9
79680 kPa | – | 1027.1
80120 kPa | 1062.9 | –
90140 kPa | 1100 | –
90230 kPa | – | 1067.9
99950 kPa | – | 1102.7
99970 kPa | 1134.2 | –
109900 kPa | – | 1136.3
110030 kPa | 1167 | –
120080 kPa | – | 1168.8
120150 kPa | 1198.3 | –
139940 kPa | 1255 | –
140090 kPa | – | 1227.7
159790 kPa | 1307.2 | –
159980 kPa | – | 1281
180050 kPa | – | 1330.2
180530 kPa | 1357.4 | –

Details | mass density [kg/m3]
5300 kPa | 882.11
5325 kPa | 882.5
5350 kPa | 882.83
5375 kPa | 883.08
5400 kPa | 883.4
5425 kPa | 883.67
5450 kPa | 883.98
5475 kPa | 884.26
5500 kPa | 884.47
5525 kPa | 884.8
5550 kPa | 885.04
5575 kPa | 885.37
5600 kPa | 885.62
5625 kPa | 885.95
5650 kPa | 886.26
5675 kPa | 886.49
5700 kPa | 886.8
5725 kPa | 887.09
5750 kPa | 887.39
5775 kPa | 887.67
5800 kPa | 888.01
5825 kPa | 888.24
5850 kPa | 888.54
5875 kPa | 888.77
5900 kPa | 889.08
5925 kPa | 889.31
5950 kPa | 889.55
5975 kPa | 889.92
6000 kPa | 890.13
6025 kPa | 890.33
6050 kPa | 890.62
6075 kPa | 890.95
6100 kPa | 891.19
6125 kPa | 891.52
6150 kPa | 891.86
6175 kPa | 892.08
6200 kPa | 892.35
6225 kPa | 892.62
6250 kPa | 892.89
6275 kPa | 893.14
6300 kPa | 893.45
6325 kPa | 893.63
6350 kPa | 893.89
6375 kPa | 894.18
6400 kPa | 894.43
6425 kPa | 894.67
6450 kPa | 894.92
6475 kPa | 895.17
6500 kPa | 895.37
6525 kPa | 895.62
6550 kPa | 895.96
6575 kPa | 896.11
6600 kPa | 896.41
6625 kPa | 896.62
6650 kPa | 896.9
6675 kPa | 897.02
6700 kPa | 897.4
6725 kPa | 897.56
6750 kPa | 897.77
6775 kPa | 898.06
6800 kPa | 898.37
6825 kPa | 898.6
6850 kPa | 898.87
6875 kPa | 899.09
6900 kPa | 899.3
6925 kPa | 899.5
6950 kPa | 899.65
6975 kPa | 899.77
7000 kPa | 899.79
7025 kPa | 899.99
7050 kPa | 900.2
7075 kPa | 900.45
7100 kPa | 900.68
7125 kPa | 900.92
7150 kPa | 901.15
7175 kPa | 901.36
7200 kPa | 901.57
7225 kPa | 901.84
7250 kPa | 902.09
7275 kPa | 902.25
7300 kPa | 902.49
7325 kPa | 902.74
7350 kPa | 902.98
7375 kPa | 903.16
7400 kPa | 903.45
7425 kPa | 903.64
7450 kPa | 903.9
7475 kPa | 904.05
7500 kPa | 904.3
7525 kPa | 904.46
7550 kPa | 904.69
7575 kPa | 904.94
7600 kPa | 905.11
7625 kPa | 905.36
7650 kPa | 905.61
7675 kPa | 905.8
7700 kPa | 906.04
7725 kPa | 906.26
7750 kPa | 906.42
7775 kPa | 906.67
7800 kPa | 906.89
7825 kPa | 907.08
7850 kPa | 907.32
7875 kPa | 907.57
7900 kPa | 907.73
7925 kPa | 908.06
7950 kPa | 908.15
7975 kPa | 908.39
8000 kPa | 908.68
8025 kPa | 908.88
8050 kPa | 909.06
8075 kPa | 909.27
8100 kPa | 909.45
8125 kPa | 909.7
8150 kPa | 909.86
8175 kPa | 910.09
8200 kPa | 910.33
8225 kPa | 910.56
8250 kPa | 910.76
8275 kPa | 910.96
8300 kPa | 911.17
8325 kPa | 911.44
8350 kPa | 911.66
8375 kPa | 911.83
8400 kPa | 912.07
8425 kPa | 912.24
8450 kPa | 912.4
8475 kPa | 912.59
8500 kPa | 912.85
8525 kPa | 913.06
8550 kPa | 913.26
8575 kPa | 913.46
8600 kPa | 913.66
8625 kPa | 913.87
8650 kPa | 914.07
8675 kPa | 914.29
8700 kPa | 914.39
8725 kPa | 914.62
8750 kPa | 914.82
8775 kPa | 915.04
8800 kPa | 915.26
8825 kPa | 915.43
8850 kPa | 915.64
8875 kPa | 915.83
8900 kPa | 916
8925 kPa | 916.16
8950 kPa | 916.35
8975 kPa | 916.53
9000 kPa | 916.73
9025 kPa | 916.93
9050 kPa | 917.12
9075 kPa | 917.31
9100 kPa | 917.55
9125 kPa | 917.75
9150 kPa | 917.9
9175 kPa | 918.13
9200 kPa | 918.33
9225 kPa | 918.6
9250 kPa | 918.7
9275 kPa | 918.95
9300 kPa | 919.11
9325 kPa | 919.31
9350 kPa | 919.52
9375 kPa | 919.69
9400 kPa | 919.87
9425 kPa | 920.09
9450 kPa | 920.32
9475 kPa | 920.47
9500 kPa | 920.65
9525 kPa | 920.85
9550 kPa | 921.09
9575 kPa | 921.21
9600 kPa | 921.39
9625 kPa | 921.56
9650 kPa | 921.81
9675 kPa | 921.97
9700 kPa | 922.14
9725 kPa | 922.38
9750 kPa | 922.58
9775 kPa | 922.71
9800 kPa | 922.94
9825 kPa | 923.15
9850 kPa | 923.28
9875 kPa | 923.48
9900 kPa | 923.69
9925 kPa | 923.77
9950 kPa | 924
9975 kPa | 924.18
10000 kPa | 924.34
10025 kPa | 924.53
10050 kPa | 924.71
10075 kPa | 924.83
10100 kPa | 925.08
10125 kPa | 925.24
10150 kPa | 925.41
10175 kPa | 925.57
10200 kPa | 925.75
10225 kPa | 926.06
10250 kPa | 926.06
10275 kPa | 926.3
10300 kPa | 926.47
10325 kPa | 926.69
10350 kPa | 926.79
10375 kPa | 927.06
10400 kPa | 927.17
10425 kPa | 927.34
